Results as given in ChEMBL document CHEMBL1130454, “Synthesis and antirheumatic activity of novel tetrahydroquinoline-8-carboxylic acid derivatives” (1997).

Key:
Format in all cases: functional
Rattus norvegicus [1] = assay: Tested for edema suppression rate with respect to control value in adjuvant arthritis rat at a dose of 50 mg/Kg; Range = 31-40%
Rattus norvegicus [2] = assay: Tested for edema suppression rate with respect to control value in adjuvant arthritis rat at a dose of 50 mg/Kg; Range = >50%
Rattus norvegicus [3] = assay: Tested for edema suppression rate with respect to control value in adjuvant arthritis rat; Range = 0-20%
Rattus norvegicus [4] = assay: Tested for edema suppression rate with respect to control value in adjuvant arthritis rat at a dose of 10 mg/Kg; Range = 31-40%
Rattus norvegicus [5] = assay: Tested for edema suppression rate with respect to control value in adjuvant arthritis rat at a dose of 10 mg/Kg; Range = 21-30%
Rattus norvegicus [6] = assay: Tested for edema suppression rate with respect to control value in adjuvant arthritis rat at a dose of 10 mg/Kg; Range = 41-50%
Rattus norvegicus [7] = assay: Tested for edema suppression rate with respect to control value in adjuvant arthritis rat at a dose of 50 mg/Kg; Range = 21-30%

CNc1ccc([N+](=O)[O-])cc1C(=O)O
inhibition in vivo at 50 mg/kg (Rattus norvegicus [1]): 40%

O=C(O)c1cc([N+](=O)[O-])cc2c1NCCC2
inhibition in vivo at 50 mg/kg (Rattus norvegicus [2]): > 50%

O=C(O)c1cc([N+](=O)[O-])cc2c1NCC2
Inhibition (Rattus norvegicus [3]): 20%

O=C(O)c1cc2c(c(C(=O)O)c1)NCCC2
inhibition in vivo at 10 mg/kg (Rattus norvegicus [4]): 40%

O=C(O)c1cccc2c1NC(c1ccccc1)CO2 (stereo unspecified)
inhibition in vivo at 10 mg/kg (Rattus norvegicus [4]): 40%

O=C(O)c1cc2c(c(C(=O)O)c1)NCCS2
Inhibition (Rattus norvegicus [3]): 20%

O=C(O)c1cc([N+](=O)[O-])ccc1NCc1ccccc1
Inhibition (Rattus norvegicus [3]): 20%

Nc1ccc(Cl)cc1C(=O)O
Inhibition (Rattus norvegicus [3]): 20%

O=C(O)c1cc([N+](=O)[O-])cc2c1NCCCC2
inhibition in vivo at 10 mg/kg (Rattus norvegicus [5]): 30%

CS(=O)(=O)Nc1cc2c(c(C(=O)O)c1)NCCCC2
inhibition in vivo at 50 mg/kg (Rattus norvegicus [1]): 40%

O=C(O)Cc1cc2c(c(C(=O)O)c1)NCCC2
inhibition in vivo at 10 mg/kg (Rattus norvegicus [6]): 50%

O=C(O)c1cc([N+](=O)[O-])cc2c1NC(c1ccccc1)CC2 (stereo unspecified)
Inhibition (Rattus norvegicus [3]): 20%

O=C(O)c1cc([N+](=O)[O-])cc2c1NCCO2
Inhibition (Rattus norvegicus [3]): 20%

O=C(O)c1cc(Br)c(Cl)c2c1NCCO2
inhibition in vivo at 50 mg/kg (Rattus norvegicus [7]): 30%

O=C(O)c1cc(Cl)cc2c1NCCS2
Inhibition (Rattus norvegicus [3]): 20%

Nc1ccc([N+](=O)[O-])cc1C(=O)O
inhibition in vivo at 10 mg/kg (Rattus norvegicus [5]): 30%
